ChEMBL document CHEMBL5143627, “Design, synthesis, and biological evaluation of polyphenol derivatives as DYRK1A inhibitors. The discovery of a potentially promising treatment for Multiple Sclerosis” (Bioorg Med Chem Lett, 2022)
The source made the active and inactive calls. No cut-off for these calls is given here.

Legend:
[1] = biological target: Dual specificity tyrosine-phosphorylation-regulated kinase 1A (Homo sapiens, UniProt Q13627); assay: Inhibition of DYRK1A (unknown origin) using HT-497 as substrate preincubated with compound followed by substrate addition and measured after 30 mins in the presence of ATP by ELISA analysis
[2] = tested on: Mus musculus; assay: Anti-inflammatory activity in MOG (35 to 55 residues)-induced experimental autoimmune encephalomyelitis mouse model assessed as reduction in brain TNFalpha level at 15 mg/kg, INH; format: functional, organism-based
[3] = tested on: Mus musculus; assay: Anti-inflammatory activity in MOG (35 to 55 residues)-induced experimental autoimmune encephalomyelitis mouse model assessed as reduction in spinal cord inflammation severity score at 15 mg/kg, INH by H&E staining based light microscopic analysis; format: functional, organism-based
[4] = tested on: Mus musculus; assay: Anti-inflammatory activity in MOG (35 to 55 residues)-induced experimental autoimmune encephalomyelitis mouse model assessed as reduction in spinal cord axonal neurodegeneration severity score at 15 mg/kg, INH by Bielschowsky silver staining based light microscopic analysis; format: functional, organism-based
[5] = tested on: Mus musculus; assay: Anti-inflammatory activity in MOG (35 to 55 residues)-induced experimental autoimmune encephalomyelitis mouse model assessed as reduction in spinal cord demyelination severity score at 15 mg/kg, INH by Luxol fast blue staining based light microscopic analysis; format: functional, organism-based
[6] = tested on: Mus musculus; assay: Anti-inflammatory activity in MOG (35 to 55 residues)-induced experimental autoimmune encephalomyelitis mouse model assessed as reversal of clinical scores at 15 mg/kg, INH administered twice daily for 25 days; format: functional, organism-based; conditions: time 25.0 day
[7] = tested on: Mus musculus; assay: Anti-inflammatory activity in MOG (35 to 55 residues)-induced experimental autoimmune encephalomyelitis mouse model assessed as reduction in brain IFNgamma level at 15 mg/kg, INH; format: functional; design: scale not given: the % may be the effect or the level left
[8] = tested on: Mus musculus; assay: Anti-inflammatory activity in MOG (35 to 55 residues)-induced experimental autoimmune encephalomyelitis mouse model assessed as reduction in brain IL-17 level at 15 mg/kg, INH; format: functional; design: scale not given: the % may be the effect or the level left
[9] = Bioavailability in CF-1 mouse at 163.8 micromol/kg, IG measured upto 720 mins; format: ADME, organism-based; conditions: in vivo, po, 163.8 µmol/kg
[10] = Oral bioavailability in Sprague-Dawley rat at 100 mg/kg; format: ADME, organism-based; conditions: in vivo
[11] = organism: Mus musculus; assay: Anti-inflammatory activity in MOG (35 to 55 residues)-induced experimental autoimmune encephalomyelitis mouse model assessed as reduction in spinal cord demyelination severity score by Luxol fast blue staining based light microscopic analysis; format: functional, organism-based
[12] = organism: Mus musculus; assay: Anti-inflammatory activity in MOG (35 to 55 residues)-induced experimental autoimmune encephalomyelitis mouse model assessed as reduction in spinal cord inflammation severity score by H&E staining based light microscopic analysis; format: functional, organism-based
[13] = organism: Mus musculus; assay: Anti-inflammatory activity in MOG (35 to 55 residues)-induced experimental autoimmune encephalomyelitis mouse model assessed as reduction in spinal cord axonal neurodegeneration severity score by Bielschowsky silver staining based light microscopic analysis; format: functional, organism-based
[14] = tested on: Mus musculus; assay: Anti-inflammatory activity in MOG (35 to 55 residues)-induced experimental autoimmune encephalomyelitis mouse model assessed as reversal of clinical scores at 1 mg/kg, INH administered once daily for 25 days; format: functional, organism-based; conditions: time 25.0 day

SMILES | IC50 [1] [nM] | other results
O=C(O[C@@H]1Cc2c(O)cc(O)cc2O[C@H]1c1ccc(O)c(O)c1)c1cc(O)c(O)c(O)c1F (racemic) | 74 | 
O=C(O[C@@H]1Cc2c(O)cc(O)cc2O[C@H]1c1cc(O)c(O)c(O)c1)c1cc(O)c(O)c(O)c1F | 35 | Activity [2]: Active; Activity [3]: Active; Activity [4]: Active; Activity [5]: Active; Activity [6]: Active; Activity [7]: 90%; Activity [8]: 79%
O=C(O[C@@H]1Cc2c(O)cccc2O[C@H]1c1cc(O)c(O)c(O)c1)c1cc(O)c(O)c(O)c1 (racemic) | 212 | 
Cc1c(C(=O)O[C@@H]2Cc3c(O)cc(O)cc3O[C@H]2c2cc(O)c(O)c(O)c2)ccc(O)c1O | 553 | 
O=C(O[C@@H]1Cc2c(O)cc(O)cc2O[C@H]1c1cc(O)c(O)cc1F)c1cc(O)c(O)c(O)c1F | 115 | 
O=C(O[C@@H]1Cc2c(O)cc(O)cc2O[C@H]1c1cc(O)c(O)c(O)c1F)c1cc(O)c(O)c(O)c1 | 60 | 
O=C(O[C@@H]1Cc2ccccc2O[C@H]1c1cc(O)c(O)c(O)c1)c1cc(O)c(O)c(O)c1 (racemic) | 422 | 
O=C(O[C@@H]1Cc2c(O)cc(O)cc2O[C@H]1c1cc(O)c(O)c(O)c1)c1cc(O)c(O)cc1O | 172 | 
O=C(O[C@@H]1Cc2c(O)cc(O)cc2O[C@H]1c1cc(O)c(O)c(O)c1)c1cc(O)c(O)cc1C(F)(F)F | 432 | 
O=C(O[C@@H]1Cc2c(O)cc(O)cc2O[C@@H]1c1cc(O)c(O)c(O)c1)c1cc(O)c(O)c(O)c1 [EPIGALOCATECHIN GALLATE] | 232 | bioavailability [9]: 12%; bioavailability [10]: ≤ 5%
O=C(O[C@@H]1Cc2ccccc2C[C@H]1c1cc(O)c(O)c(O)c1)c1cc(O)c(O)c(O)c1 (racemic) | 1050 | 
O=C(O[C@@H]1Cc2c(O)cc(O)cc2O[C@H]1c1cc(O)c(O)c(O)c1)c1ccc(O)c(O)c1O | 108 | 
O=C(O[C@@H]1Cc2c(O)cc(O)cc2O[C@H]1c1ccc(O)c(O)c1)c1cc(O)c(O)c(O)c1 [(-)-CATECHINGALLATE] | 220 | 
CCCCCCCCc1ccc(CCC(N)(CO)CO)cc1 |  | Activity [11]: Active; Activity [12]: Active; Activity [13]: Active; Activity [14]: Active
O=C(O[C@@H]1Cc2c(O)cc(O)cc2O[C@H]1c1cc(O)c(O)c(O)c1)c1ccc(O)c(O)c1 | 236 | 
COc1c(O)cc(C(=O)O[C@@H]2Cc3c(O)cc(O)cc3O[C@H]2c2cc(O)c(O)c(O)c2)cc1O | 25100 | 
COc1c(O)cc([C@@H]2Oc3cc(O)cc(O)c3C[C@H]2OC(=O)c2cc(O)c(O)c(O)c2)cc1O | 5800 | 
O=C(O[C@@H]1Cc2c(O)cc(O)cc2O[C@H]1c1cc(O)c(O)c(O)c1)c1cc(O)c(O)cc1F | 107 | 
O=C(O[C@@H]1Cc2c(O)cc(O)cc2O[C@H]1c1cc(O)c(O)c(O)c1)c1cc(O)c(O)c(F)c1 | 145 | 
O=C(O[C@@H]1Cc2c(O)cc(O)cc2O[C@@H]1c1ccc(O)c(O)c1)c1cc(O)c(O)c(O)c1 [EPICATECHIN GALLATE] | 523 | 
O=C(O[C@@H]1Cc2c(O)cc(O)cc2O[C@H]1c1cc(O)c(O)cc1F)c1cc(O)c(O)c(O)c1 | 153 | 
COc1cc(C(=O)O[C@@H]2Cc3c(O)cc(O)cc3O[C@@H]2c2cc(O)c(O)c(O)c2)cc(O)c1O | 429 | 
O=C(O[C@@H]1Cc2c(O)cc(O)cc2O[C@H]1c1cc(O)c(O)c(O)c1F)c1cc(O)c(O)c(O)c1F | 54 | 
Cc1c([C@@H]2Oc3cc(O)cc(O)c3C[C@H]2OC(=O)c2cc(O)c(O)c(O)c2)cc(O)c(O)c1O | 296 | 
